From PMC13534789, “Molecular Glue Degraders Enhance CAPRIN1‐Dependent Lysosomal Degradation of APP and Reduce Amyloid β in Alzheimer's Disease” (Advanced Science, 2026)
≈ marks a conversion by molar mass, not a printed value.

Assays:
[1] = Kinetic solubility assay; format: physicochemical; details: for solubility at 24 h: aqueous buffer, kinetic from dmso stock, phosphate buffer pH 7.4, 24 h, room temperature, LC-MS, read-out: Solubility PBS
Experimental: 10 µL of 10 mM DMSO stock solution of test and control compounds was added to 990 µL phosphate buffer with pH 7.4. […] Samples were centrifuged, and the supernatant was transferred into a filter plate. Then, the filtrates were quantified by an LC‐MS system to get solubility results.

[2] = molecular target: T1, APP695‐HiBiT (Homo sapiens, UniProt P05067+Q14444); test: APP695-HiBiT luminescence assay in HEK293 cells; format: cell-based
T1 construct: expressed in transfected cells; host or cells: HEK293, lentiviral transduction, hygromycin-selected single clones (#3, #9)
T1 sequence (P05067 18-695 isoform P05067-4 limits assumed): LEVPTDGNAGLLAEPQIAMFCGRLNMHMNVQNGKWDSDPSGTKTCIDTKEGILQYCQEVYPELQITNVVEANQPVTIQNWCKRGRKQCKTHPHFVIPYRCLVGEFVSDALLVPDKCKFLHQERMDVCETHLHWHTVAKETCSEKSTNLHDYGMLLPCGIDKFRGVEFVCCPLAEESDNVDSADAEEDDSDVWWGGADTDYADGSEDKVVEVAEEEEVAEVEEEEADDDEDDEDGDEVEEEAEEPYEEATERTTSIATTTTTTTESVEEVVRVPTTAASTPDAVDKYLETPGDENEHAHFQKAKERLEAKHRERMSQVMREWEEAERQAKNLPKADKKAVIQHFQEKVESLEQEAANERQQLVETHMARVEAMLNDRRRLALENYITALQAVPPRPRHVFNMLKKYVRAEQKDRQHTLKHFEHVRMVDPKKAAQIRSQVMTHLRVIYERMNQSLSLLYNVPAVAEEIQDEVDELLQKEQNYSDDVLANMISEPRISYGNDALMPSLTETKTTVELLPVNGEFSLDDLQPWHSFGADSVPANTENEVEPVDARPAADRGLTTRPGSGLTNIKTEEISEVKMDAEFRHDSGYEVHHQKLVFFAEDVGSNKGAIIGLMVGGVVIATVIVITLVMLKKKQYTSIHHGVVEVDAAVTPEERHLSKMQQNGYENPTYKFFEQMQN
T1 sequence (Q14444 2-709 limits assumed): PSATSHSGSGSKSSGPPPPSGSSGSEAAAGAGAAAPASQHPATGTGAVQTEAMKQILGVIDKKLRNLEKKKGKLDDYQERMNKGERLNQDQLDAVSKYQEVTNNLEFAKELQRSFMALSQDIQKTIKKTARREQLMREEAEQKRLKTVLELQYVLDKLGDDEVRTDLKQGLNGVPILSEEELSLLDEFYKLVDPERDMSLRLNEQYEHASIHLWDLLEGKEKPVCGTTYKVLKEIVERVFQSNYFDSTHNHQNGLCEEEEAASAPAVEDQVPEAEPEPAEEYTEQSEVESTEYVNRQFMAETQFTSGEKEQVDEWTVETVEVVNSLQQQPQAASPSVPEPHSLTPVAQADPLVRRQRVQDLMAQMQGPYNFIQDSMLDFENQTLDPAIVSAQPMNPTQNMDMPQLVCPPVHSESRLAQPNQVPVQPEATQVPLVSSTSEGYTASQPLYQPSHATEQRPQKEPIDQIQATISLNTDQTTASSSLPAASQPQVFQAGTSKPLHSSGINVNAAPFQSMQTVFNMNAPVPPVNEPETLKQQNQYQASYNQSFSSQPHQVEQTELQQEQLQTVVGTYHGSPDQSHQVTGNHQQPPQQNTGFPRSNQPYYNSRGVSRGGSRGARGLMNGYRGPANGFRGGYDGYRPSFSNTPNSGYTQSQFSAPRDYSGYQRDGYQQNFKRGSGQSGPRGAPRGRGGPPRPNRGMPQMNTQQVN
Excerpt: We previously reported CAPRIN1‐targeted molecular degraders that bind to CAPRIN1 and F‐box protein 42 (FBXO42), promoting FBXO42‐mediated proteasomal degradation of small ubiquitin‐related modifier 1 (SUMO1), an oncoprotein, in human cancers. CAPRIN1 is a neuronal RNA‐binding protein involved in neuronal development and neurodegeneration. CAPRIN1 was reported to be a binding partner of APP [28]. Therefore, we thought to investigate whether CAPRIN1‐targeted degraders could promote APP degradation in APP‐expressing cell models. To establish screening models, we tagged wild‐type APP695 (APP695), the predominant neuronal isoform, with the small HiBiT tag (APP695‐HiBiT) and expressed APP695‐HiBiT in HEK293 cells. Cell lysates were analyzed using a luminescence‐based assay of HiBiT‐tagged protein [30], identifying clone #3 and #9 with robust APP695‐HiBiT expression (Figure S1A). Western blotting and ELISA confirmed intracellular expression of APP695 and extracellular release of Aβ42 in these clones (Figure S1B,C).
HEK293 cells were purchased from the American Type Culture Collection (ATCC). […] Once expanded, clones were analyzed by ELISA for amyloid beta 42 (Aβ42), western blot for APP expression, and Hibit‐lytic assay (Promega). […]

[3] = system: APP trafficking through the endosomal‐lysosomal pathway; test: Confocal colocalization of APP / CAPRIN1 with organelle markers; format: cell-based, human; details: for APP–LAMP1 colocalization: AD iPSC-Ns
Experimental: Cells were grown on glass cover slips coated with 1% Matrigel and treated with drugs. Cells were washed, fixed, permeabilized, blocked, and incubated in primary antibodies diluted in blocking solution (1% v/v BSA solution/5% Goat serum in PBS containing 0.1% Triton X‐100) overnight at 4°C. The cells were washed three times with PBS and incubated in secondary antibodies in a blocking solution for 1 h at room temperature, then washed with PBS, followed by HOECHST staining (Invitrogen) for 5 min, and washed with PBS. The glass coverslips were put on a slide‐in mounting medium ([…]), and the edges were sealed with coverslip sealant (BIOTIUM). Image data were captured and processed with a confocal microscope system (Olympus Fluoview FV1000 or Leica DIVE) and the ImageJ program. For 3D organoids staining, organoids were fixed in 10% formalin overnight at room temperature, followed by incubation in 30% sucrose solution overnight at room temperature, embedded in optimal cutting temperature compound (OCT, FisherScientific), and kept at ‐80°C overnight. Frozen samples were sectioned at 10 µm using a cryostat (Leica) and mounted on microscope slides (Fisherbrand superfrost plus, FisherScientific). Before immunolabeling, sections were rinsed in PBS for 5 min, permeabilized for 30 min in PBS containing 0.3% Triton‐X 100, blocked for 1 h in PBS containing 5% BSA and 0.1% Triton‐X 100, and incubated with primary antibodies diluted in the same blocking solution. Then, secondary staining, mounting, and imaging were followed.
ImageJ (Fiji) program (NIH, Bethesda, MD, USA) was used o analyze images. Pearson's correlation coefficients were calculated with the JACoP plugin from two channels (BIOP). For colocalization/trafficking analysis with organelles in iPSC‐Ns, HEK293 cells, and 3D organoids, APP or CAPRIN1 with organelles signals were segmented using a trainable weka segmentation plugin in Fiji as previously described. Colocalized areas were calculated in the image calculator tool ([…] function) to get an overlayed area for the segmented signals, followed by using the analyze particle tool in Fiji to determine by > 1‐pixel overlapping of the segmented signal. To determine the fluorescence intensity, the corrected total cell fluorescence (CTCF) was used using the formula: CTCF = Integrated Density—(Area of selected cell x Mean fluorescence of background readings), as described previously. Bright‐field images of immunoperoxidase‐stained and Thioflavin S‐stained brain sections were exported as 16‐bit RGB TIFF files and analyzed using ImageJ (Fiji), following previously established protocols. To isolate the DAB signal for quantification, color deconvolution was performed using the “H DAB” setting in the Color Deconvolution plugin in ImageJ. The resulting “Colour_2” image, corresponding to the DAB chromogen, was converted to 8‐bit grayscale for further analysis. Manual thresholding was applied to the DAB channel using the threshold adjustment tool in ImageJ. […] Regions of interest (ROIs), specifically the subiculum, hippocampus, and cortex, were manually delineated based on anatomical landmarks and saved using the ROI Manager. For each ROI, the DAB‐positive area was quantified using the Analyze Particles plugin with default particle size settings. The percentage of DAB‐positive area was calculated as the ratio of the DAB‐positive area to the total area of each ROI.

N#Cc1cccc(NC(=O)Nc2nc3ccc(C(=O)N4CCOCC4)cc3s2)c1 [compound 0043]
Aqueous solubility by LC-MS, in words [1]: poor aqueous solubility | solubility at 24 h [1]: 0.06 µg/mL (≈ 0.147 µM) | APP695-HiBiT levels in library screen ([2]; 10 µM, 24 h, APP695-HiBiT clones, vs DMSO): more effective | APP–LAMP1 colocalization ([3]; 10 µM, 24 h): increased APP–LAMP1 colocalization | APP colocalization with EEA1, Rab7 and LAMP1 ([3]; AG27606-Ns, 10 µM, 0, 3 or 7 h): significantly increased APP colocalization with all three markers | CAPRIN1 colocalization with Rab7 and LAMP1 ([3]; AG27606-Ns, 10 µM, 0, 3 or 7 h): increase its colocalization with both markers

COc1cccc(NC(=O)Nc2nc3ccc(C(=O)N4CCOCC4)cc3s2)c1 [compound 0152]
Aqueous solubility by LC-MS, in words [1]: significantly improved aqueous solubility | solubility at 24 h [1]: 0.4 µg/mL (≈ 0.97 µM) | APP695-HiBiT levels, dose and time course ([2]; HEK-APP695-HiBiT cells): dose‐ and time‐dependent reduction in APP695‐HiBiT levels | APP–LAMP1 colocalization ([3]; 10 µM, 24 h): increased APP–LAMP1 colocalization | Colocalization of APP and CAPRIN1 with GGA1 ([3]; AG27606 neurons, 10 µM, 24 h): enhanced the colocalization of both APP and CAPRIN1 with GGA1 | Colocalization of APP and CAPRIN1 with SorLA ([3]; AG27606 neurons, 10 µM, 24 h): reduced the colocalization of both APP and CAPRIN1 with SorLA
